{"source": "paper PMC11765717", "about": "“In Vitro Insights into Bacteriocin-Mediated Modulation of Chicken Cecal Microbiota” (International Journal of Molecular Sciences, 2025)", "key": {"S. enterica": {"test_system": "S. enterica", "set-up": "method as in PMID 35543514", "details": "sensitive strain S. enterica; ref [63]; cited from earlier work", "from_the_text": "Table 1 Minimum inhibitory concentration (MIC) of the antimicrobial compounds tested (provided in µg/mL and in µmol/L) and residual activities over time in the cecal fermentation medium, after the introduction of the compounds at 25 (top) or 250 times (bottom) the minimal inhibitory concentration (MIC)."}, "chicken cecal microbiota [1]": {"test_system": "chicken cecal microbiota", "assay": "Batch fermentation of chicken cecal microbiota, 16S rRNA gene sequencing", "type": "cell-based, broiler chickens", "details": "for Impact on genera / microbiota composition, in words: 24 h of culture; for Effect on bacterial classes, in words: 12 h of cecal fermentation; for Abundance of Clostridia, in words: 25 vs 250 x MIC; for Beta diversity (PCoA of weighted Unifrac), in words: 24 h of fermentation"}, "[2]": {"test_system": "Salmonella enterica subsp. enterica serotype Newport ATCC 6962"}, "[3]": {"test_system": "Salmonella enterica subsp. enterica serotype Newport ATCC 6962", "assay": "Residual activity in cecal fermentation medium, agar well diffusion", "details": "over the 24 h of fermentation; agar diffusion tests"}, "chicken cecal microbiota [4]": {"test_system": "chicken cecal microbiota", "assay": "Short-chain fatty acids in batch fermentation supernatant", "type": "cell-based, broiler chickens", "details": "24 h; for Acetate production, in words: 250 times the MIC"}, "Listeria ivanovii HPB28": {"test_system": "Listeria ivanovii HPB28", "assay": "Residual activity in cecal fermentation medium, agar well diffusion", "details": "over the 24 h of fermentation; agar diffusion tests"}, "L. ivanovii": {"test_system": "L. ivanovii", "set-up": "method as in PMID 35170996", "details": "sensitive strain L. ivanovii; ref [64]; cited from earlier work"}, "[5]": {"test_system": "Streptococcus pyogenes RBL4", "assay": "Residual activity in cecal fermentation medium, agar well diffusion", "type": "in vitro ADME", "details": "over the 24 h of fermentation; based on inhibition diameters", "experimental": "Sterile Viande Levure (VL) medium (16 mL in 50 mL penicillin bottles), supplemented with Tween 80, bile salts, minerals, vitamins, porcine mucin (2.0 g/L), fructo-oligosaccharide (2.5 g/L), and citrus pectin (2.5 g/L), as described previously, and adjusted to pH 6 with 5 M NaOH, was inoculated with […] fecal slurry (10% inoculum, w/v). The antimicrobial compound was added in a volume of 1 mL to obtain 25 or 250 times the minimal inhibitory concentration (Table 1).\nTo ensure anaerobic conditions, the bottles were inoculated and sealed in an oxygen-free chamber. They were incubated at 41 °C and 80 rpm on an orbital shaker for up to 24 h. For each experimental treatment, samples were collected at 0, 12, and 24 h and kept at −80 °C until analysis.\nThe inhibitory activity of each antimicrobial agent was assessed qualitatively in terms of inhibition zones around agar wells. Briefly, 80 μL of sample was added to wells in pour plates (25 mL) seeded with 250 µL of overnight culture of indicator strain. Following 18 h of incubation at the appropriate temperature, inhibition diameters were measured. Photographs were taken using ChemiDoc XRS (Bio-Rad, Hercules, CA, USA)."}, "C. perfringens": {"test_system": "C. perfringens", "details": "sensitive strain C. perfringens; ref [62]; cited from earlier work"}}, "note": "Read-outs that look alike come from different tables or passages of the source. Positions of bridges follow the written chain, without caps; N, C: chain ends. Residues, ends and D or L forms follow the SMILES beside them."}
{"molecule": "O=C(O)c1cn(C2CC2)c2cc(N3CCNCC3)c(F)cc2c1=O", "note": "[Ciprofloxacin]", "values": [{"measurement": "MIC (µM)", "setting": "S. enterica", "result": 0.60, "unit": "µM"}, {"measurement": "MIC (µg/mL)", "setting": "S. enterica", "result": 0.19, "unit": "µg/mL"}, {"measurement": "Impact on genera / microbiota composition, in words", "setting": "chicken cecal microbiota [1]", "result": "impacted Gram-positive (Clostridia, Enterococcus and Streptococcus) as well as Gram-negative bacteria (Escherichia/Shigella and Gallibacterium)"}, {"measurement": "Genera Enterococcus, in words", "setting": "chicken cecal microbiota [1]; after 24 h", "result": "reduced"}, {"measurement": "Residual Activity 0 h", "setting": "[2]", "result": "+++ +++"}]}
{"molecule": "CN(C)[C@@H]1C(O)=C(C(N)=O)C(=O)[C@@]2(O)C(O)=C3C(=O)c4c(O)cccc4[C@@](C)(O)[C@H]3C[C@@H]12", "note": "[Tetracycline]", "values": [{"measurement": "Stability of inhibitory activity in batch fermentation, in words", "setting": "[3]", "result": "remained highly active"}, {"measurement": "Impact on genera / microbiota composition, in words", "setting": "chicken cecal microbiota [1]", "result": "mainly affected the Gram-negative bacteria Gallibacterium and the Gram-positive bacteria Phascolarctobacterium"}, {"measurement": "Genera Enterococcus, in words", "setting": "chicken cecal microbiota [1]; after 24 h", "result": "reduced"}, {"measurement": "Residual Activity 6 h", "setting": "[2]", "result": "+++ +++"}]}
{"molecule": "Pediocin PA-1 (M31L) (KYYGNGVTCGKHSCSVDWGKATTCIINNGALAWATGGHQGNHKC; UniProt P29430 19-62, looked up, variant M31L)", "values": [{"measurement": "Butyrate levels, in words", "setting": "chicken cecal microbiota [4]; lowest concentration", "result": "tended to decrease"}, {"measurement": "Effect on bacterial classes, in words", "setting": "chicken cecal microbiota [1]", "result": "dose-dependent effects"}, {"measurement": "Impact on genera / microbiota composition, in words", "setting": "chicken cecal microbiota [1]", "result": "moderate effect"}, {"measurement": "Genera Enterococcus, in words", "setting": "chicken cecal microbiota [1]; after 24 h, highest concentration", "result": "reduced"}, {"measurement": "Stability of inhibitory activity in batch fermentation, in words", "setting": "Listeria ivanovii HPB28", "result": "weak activity"}]}
{"molecule": "Nisin Z", "values": [{"measurement": "Acetate production, in words", "setting": "chicken cecal microbiota [4]", "result": "reached maximal ranges"}, {"measurement": "Butyrate levels, in words", "setting": "chicken cecal microbiota [4]; lowest concentration", "result": "tended to decrease"}, {"measurement": "Abundance of Clostridia, in words", "setting": "chicken cecal microbiota [1]", "result": "dose-dependent decrease"}, {"measurement": "Effect on bacterial classes, in words", "setting": "chicken cecal microbiota [1]", "result": "dose-dependent effects"}, {"measurement": "Impact on genera / microbiota composition, in words", "setting": "chicken cecal microbiota [1]", "result": "had the most impact on microbiota composition"}, {"measurement": "Beta diversity (PCoA of weighted Unifrac), in words", "setting": "chicken cecal microbiota [1]", "result": "tended to cluster separately"}, {"measurement": "Genera Enterococcus, in words", "setting": "chicken cecal microbiota [1]; after 24 h", "result": "reduced"}, {"measurement": "Alpha diversity (Shannon entropy), in words", "setting": "chicken cecal microbiota [1]; t0, as compared to control", "result": "highest diversity"}, {"measurement": "MIC (µM)", "setting": "L. ivanovii", "result": 0.18, "unit": "µM"}, {"measurement": "MIC (µg/mL)", "setting": "L. ivanovii", "result": 1.56, "unit": "µg/mL"}]}
{"molecule": "Colistin", "values": [{"measurement": "Butyrate levels, in words", "setting": "chicken cecal microbiota [4]; highest concentration", "result": "tended to decrease"}, {"measurement": "MIC (µM)", "setting": "S. enterica", "result": 0.69, "unit": "µM"}, {"measurement": "MIC (µg/mL)", "setting": "S. enterica", "result": 0.80, "unit": "µg/mL"}, {"measurement": "Relative abundance of Escherichia, in words", "setting": "chicken cecal microbiota [1]", "result": "dropped"}, {"measurement": "Abundance of Clostridia, in words", "setting": "chicken cecal microbiota [1]", "result": "dose-dependent decrease"}, {"measurement": "Relative abundance of Gammaproteobacteria", "setting": "chicken cecal microbiota [1]; 25× MIC", "result": 0.03}, {"measurement": "Effect on bacterial classes, in words", "setting": "chicken cecal microbiota [1]", "result": "dose-dependent effects"}, {"measurement": "Impact on genera / microbiota composition, in words", "setting": "chicken cecal microbiota [1]", "result": "strongly impaired Escherichia/Shigella together with other Gram-negative bacteria (Gallibacterium and Butyricimonas)"}, {"measurement": "Alpha diversity (Shannon entropy), in words", "setting": "chicken cecal microbiota [1]; after 12 h, compared to bacitracin, rifampicin, tetracycline, MccE492 and nisin", "result": "lower alpha diversity"}, {"measurement": "Alpha diversity (Shannon entropy), in words", "setting": "chicken cecal microbiota [1]; after 24 h", "result": "lowest alpha diversity"}, {"measurement": "Residual Activity 0 h", "setting": "[2]", "result": "++ ++"}, {"measurement": "Residual Activity 6 h", "setting": "[2]", "result": "++ ++"}, {"measurement": "Residual Activity 12 h", "setting": "[2]", "result": "++ ++"}, {"measurement": "Residual Activity 24 h", "setting": "[2]", "result": "++ ++"}]}
{"molecule": "Bacitracin", "values": [{"measurement": "Acetate production, in words", "setting": "chicken cecal microbiota [4]", "result": "reached maximal ranges"}, {"measurement": "Butyrate levels, in words", "setting": "chicken cecal microbiota [4]; UHPLC-UV 210 nm", "result": "significant decrease"}, {"measurement": "Stability of inhibitory activity in batch fermentation, in words", "setting": "[5]", "result": "least stable"}, {"measurement": "Effect on bacterial classes, in words", "setting": "chicken cecal microbiota [1]", "result": "dose-dependent effects"}, {"measurement": "Impact on genera / microbiota composition, in words", "setting": "chicken cecal microbiota [1]", "result": "mainly impacted Streptococcus and Ruminococcus together with different Clostridia (Lachnoclostridium, Erysipelatoclostridium, and Oscillibacter), while promoting the genera Escherichia/Shigella"}, {"measurement": "MIC", "setting": "C. perfringens", "result": 1.50, "unit": "µg/mL"}]}
{"molecule": "CO[C@H]1/C=C/O[C@@]2(C)Oc3c(C)c(O)c4c(O)c(c(/C=N/N5CCN(C)CC5)c(O)c4c3C2=O)NC(=O)/C(C)=C\\C=C\\[C@H](C)[C@H](O)[C@@H](C)[C@@H](O)[C@@H](C)[C@H](OC(C)=O)[C@@H]1C", "note": "[Rifampicin]", "values": [{"measurement": "Acetate production, in words", "setting": "chicken cecal microbiota [4]", "result": "reached maximal ranges"}, {"measurement": "MIC (µM)", "setting": "S. enterica", "result": 0.47, "unit": "µM"}, {"measurement": "MIC (µg/mL)", "setting": "S. enterica", "result": 0.39, "unit": "µg/mL"}, {"measurement": "Relative abundance of Bacteroidia", "setting": "chicken cecal microbiota [1]; 24 h, concentrations not assigned", "result": 0.02}, {"measurement": "Impact on genera / microbiota composition, in words", "setting": "chicken cecal microbiota [1]", "result": "mainly impacted the genera Bacteroides and Parabacteroides"}, {"measurement": "Beta diversity (PCoA of weighted Unifrac), in words", "setting": "chicken cecal microbiota [1]", "result": "tended to cluster separately"}, {"measurement": "Genera Enterococcus, in words", "setting": "chicken cecal microbiota [1]; after 24 h, lowest concentration", "result": "reduced"}]}
{"molecule": "CC[C@H](C)[C@H](NC(=O)CNC(=O)[C@@H](NC(=O)[C@H](Cc1ccccc1)NC(=O)[C@H](Cc1ccc(O)cc1)NC(=O)[C@@H]1CCC(=O)NCC(=O)NCC(=O)N[C@@H](C)C(=O)NCC(=O)N[C@@H](Cc2cnc[nH]2)C(=O)N[C@@H](C(C)C)C(=O)N2CCC[C@H]2C(=O)N1)C(C)C)C(=O)NCC(=O)N[C@H](C(=O)N1CCC[C@H]1C(=O)N[C@H](C(=O)N[C@@H](CO)C(=O)N[C@@H](Cc1ccccc1)C(=O)N[C@@H](Cc1ccc(O)cc1)C(=O)NCC(=O)O)[C@@H](C)CC)[C@@H](C)O", "note": "[Microcin J25] (GGAGHVPEYFVGIGTPISFYG-OH; lactam N-8)", "values": [{"measurement": "Stability of inhibitory activity in batch fermentation, in words", "setting": "[2]", "result": "significant inhibitory activity at 24 h"}]}
{"molecule": "Microcin E492 (peptide, UniProt Q9Z4N4 16-99, looked up, 84 aa siderophore peptide produced by Klebsiella pneumoniae, produced heterologously in E. coli MC4100) Microcin E492: GETDPNTQLLNDLGNNMAWGAALGAPGGLGSAALGAAGGALQTVGQGLIDHGPVNVPIPVLIGPSWNGSGSGYNSATSSSGSGS", "values": [{"measurement": "MIC (µM)", "setting": "S. enterica", "result": 0.18, "unit": "µM"}, {"measurement": "MIC (µg/mL)", "setting": "S. enterica", "result": 1.56, "unit": "µg/mL"}, {"measurement": "Impact on genera / microbiota composition, in words", "setting": "chicken cecal microbiota [1]", "result": "only minor effects"}, {"measurement": "Genera Enterococcus, in words", "setting": "chicken cecal microbiota [1]; after 24 h", "result": "reduced"}, {"measurement": "Alteration in the relative abundance of the identified taxa, in words", "setting": "chicken cecal microbiota [1]; class level", "result": "neither MccJ25 nor MccE492 induced a statistically significant alteration"}, {"measurement": "Alpha diversity (Shannon entropy), in words", "setting": "chicken cecal microbiota [1]; t0, as compared to control", "result": "highest diversity"}]}
